The EC50 is the concentration that produces a half-maximal response.

Chain of GPR35 (Q9HC97 whole entry S294R): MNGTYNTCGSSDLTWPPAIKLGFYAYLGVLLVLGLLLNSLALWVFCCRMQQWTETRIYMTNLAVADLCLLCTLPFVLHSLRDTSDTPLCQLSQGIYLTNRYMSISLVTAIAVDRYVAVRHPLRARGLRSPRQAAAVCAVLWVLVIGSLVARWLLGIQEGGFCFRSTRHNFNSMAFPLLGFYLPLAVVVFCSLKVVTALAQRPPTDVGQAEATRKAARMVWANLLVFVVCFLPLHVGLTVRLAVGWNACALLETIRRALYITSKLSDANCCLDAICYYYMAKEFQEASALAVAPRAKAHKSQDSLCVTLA
T1 sequence (Q9HC97 whole entry S294R): as above

One experiment has as its target GPR35 (Homo sapiens, UniProt Q9HC97, S294R).
Experiment: not given
The conditions noted are these: UGPR35β cells.
For pyrantel tartrate, the “activity in GPR35 internalization assay, in words” value is “inactive”.

Still in this experiment, the particulars now being: UGPR35β cells, On-Cell Western; log(EC50).
Take oxantel pamoate [Compound 2]: the “log EC50 of GPR35 internalization” value is reported as −7.772.

Still in this experiment, the particulars now being: read-out: EC50 of GPR35 internalization; UGPR35β cells, On-Cell Western; corresponds to the log EC50.
Take oxantel pamoate [Compound 2]: the EC50 is 0.017 µM.

A further experiment has as its target T1, GPR35a (Homo sapiens, UniProt Q9HC97, S294R).
Experiment: not given
The settings on record: 3 μM; data not shown.
Regarding `N#CC(=C(N)Sc1ccccc1N)C(C#N)=C(N)Sc1ccccc1N` [Compound U0126, 1,4-diamino-2,3-dicyano-1,4-bis(2-aminophenylthio)-butadiene], the “effect on ERK1/2 activation” value is listed as “inhibited ERK1/2 activation” and the “effect on pamoic acid-induced ERK activation” value is listed as “abolished pamoic acid-induced ERK activation”.

For the next experiment, the target named is T1, GPR35a. The experiment is described as follows: β-arrestin2-GFP redistribution/aggregation in UGPR35β cells. Further details: expressed in transfected cells. It is filed as cell-based. The settings on record: compared with the binaphthyl compounds. From the text: This cellular assay utilizes the intracellular β-arrestin protein as a reporter of receptor activity. […] Upon agonist-mediated GPCR activation, β-arrestins rapidly redistribute en masse to ligand-activated plasma membrane receptors (on the other hand, β-arrestins remain in the cytosol upon antagonist binding to the receptor). Activated GPCR/β-arrestin complexes will concentrate in clathrin-coated pits and/or internal vesicles where most GPCRs normally undergo internalization. At this juncture, the β-arrestin either (i) dissociates and returns to the cytoplasm, or (ii) further redistributes with the receptor into an intracellular endosomal vesicle, depending on the receptor type. It is the agonist-induced redistribution of β-arrestin-GFP into progressively smaller compartments (cytosolic compartment>plasma membrane>coated pit>endosomal compartment) that enables imaging of receptor activation.
This cell line is herein referred to as UGPR35β. Selected cells were maintained at 200 μg/ml G418® and 100 μg/ml Zeocin® at 37° C. and 5% CO2.
U20S cells expressing HA-GPR35a/βarr2-GFP (also known as UGPR35β cells) were plated in a 24-well plate onto coverslips that were coated with poly-D-lysine (0.02 mg/ml; Sigma-Aldrich, St. Louis, Mo., USA) for 1 hour. Cells were maintained at 37° C., 5% CO2 until ready for experiment (90% confluent). Cells were washed once with Hanks' balanced salt solution (HBSS, Cellgro, Mediatech, Inc, Manassas, Va., USA) comprising CaCl2 0.14 g/L, KCl 0.4 g/L, KH2PO4 0.06 g/L, MgSO4 0.097 g/L, NaCl 8 g/L, Na2HPO4 0.047 g/L, NaHCO3 0.35 g/L, and D-glucose 1.0 g/L. For receptor activation, agonist-evoked redistribution of βarr2-GFP was measured by applying the drug for 40 minutes. For measuring the effects of antagonist, agonist and antagonist were co-applied.
Cells were then fixed with 4% paraformaldehyde for 20 minutes at room temperature, followed by three washes with HBSS.
βarr2-GFP aggregates were identified by a wavelet-based, Microsoft Windows-compatible computer program written in the MatLab programming environment. A program algorithm extracts from two dimensional images those pixels that generate objects of interest that fall within a predetermined range of sizes and intensities and that are embedded among widely varying local backgrounds (L. Barak, available from the Duke University GPCR Assay Bank). Concentration-effect curves for agonist-mediated receptor activation were analyzed by non-linear regression techniques using GraphPad Prism 4.0 software (GraphPad) and data were fitted to sigmoidal dose-response curves to obtain EC50 or IC50 values. Statistical analysis was performed using one-way analysis of variance (ANOVA) followed by Dunnett's post-test or two-tailed unpaired student t test. P values of <0.05 are considered significant.
A prototypical U2OS osteosarcoma cell line that permanently expresses β-arrestin-GFP and N-terminal triple HA-tagged human GPR35a was used to screen ligands for agonism or antagonism against the GPR35 receptor. […] Endogenous receptors are invisible to the assay because there are too few endogenous receptors of any type compared to the number of β-arrestin molecules in the cell to provide a measurable response.
Upon agonist-mediated GPCR activation, β-arrestins rapidly redistribute en masse to ligand-activated plasma membrane receptors, and then the activated GPCR/arrestin complexes concentrate in clathrincoated pits and/or internal vesicles.
Concentration response curves for β-arrestin2 aggregation were obtained for compounds of interest. For this study, UGPR35β cells were treated with different concentrations of a compound of interest and images of the cells (acquired in triplicate in three or more independent experiments) were analyzed for fluorescence.
On to `O=C(O)c1cc2cc(Br)ccc2cc1O` [Compound 7, 7-bromo-3-hydroxy-2-naphthoic acid], for which the “potency as GPR35 agonist, in words” value is “much less potent”.

With `O=C(O)c1cc2ccccc2cc1O` [Compound 8, 3-hydroxy-2-naphthoic acid], the “potency as GPR35 agonist, in words” value is “much less potent”.

The same experiment, now with this note: concentration response analysis, read-out: β-arrestin response (EC50).
`O=C(O)c1cc2cc(Br)ccc2c(Cc2c(O)c(C(=O)O)cc3cc(Br)ccc23)c1O` [Compound 3, 7,7′-dibromo-pamoic acid]: the EC50 worked out at 0.169 µM.

For the compound `O=C(O)c1cc2ccccc2c(-c2c(O)c(C(=O)O)cc3ccccc23)c1O` [Compound 4, 1,1′-binaphthyl-2,2′-diol-3,3′-dicarboxylic acid], the 50% effective concentration (EC50) was found to be 0.286 µM.

`O=C(O)c1cc2cc(Br)ccc2cc1O` [Compound 7, 7-bromo-3-hydroxy-2-naphthoic acid]: the EC50 was found to be 6.9 µM.

On to `O=C(O)c1cc2ccccc2cc1O` [Compound 8, 3-hydroxy-2-naphthoic acid], for which the EC50 came to 86 µM.

As for oxantel pamoate [Compound 2], the concentration for a half-maximal effect (EC50) was found to be 0.091 µM.

Staying with this experiment, now noted: concentrations up to 30 μM.
“5-(4-chloro-3-methylphenyl-1-[(4-methylphenyl)methyl]-N-[(1S,2S,4R)-1,3,3-trimethylbicyclo[2.2.1]hept-2-yl]-1H-pyrazole-3-carboxamide [SR144528]”: the “activation of GPR35 (distribution of βarr2-GFP different from basal state)” value is reported as “None of the compounds at concentrations up to 30 μM activated GPR35”.

Turning to `CCCCCCC(C)(C)c1cc(O)c2c(c1)OC(C)(C)C1CCC(C)CC21` (stereo not shown) [AM4056, 1-hydroxy-1′,1′-dimethylheptylhexahydrocannabinol], the “activation of GPR35 (distribution of βarr2-GFP different from basal state)” value is on record as “None of the compounds at concentrations up to 30 μM activated GPR35”.

With `CCCCCCC(C)(C)c1ccc([C@@H]2C[C@H](O)CC[C@H]2CCCO)c(O)c1` [CP55,940, 2-[(1R,2R,5R)-5-hydroxy-2-(3-hydroxypropyl)cyclohexyl]-5-(2-methyloctan-2-yl)phenol], the “activation of GPR35 (distribution of βarr2-GFP different from basal state)” value is “None of the compounds at concentrations up to 30 μM activated GPR35”.

`C=C(C)[C@@H]1CCC(C)=C[C@H]1c1c(C)cc(O)cc1O` [Compound O-1602, 5-methyl-4-[(1R,6R)-3-methyl-6-(1-methyethenyl)-2-cyclohexen-1-yl]-1,3-benzenediol]: the “activation of GPR35 (distribution of βarr2-GFP different from basal state)” value is on record as “None of the compounds at concentrations up to 30 μM activated GPR35”.

As for `CCCCCCC(C)(C)c1cc(O)c2c(c1)OC(C)(C)[C@@H]1CC=C(CO)C[C@@H]21` [HU-210, (6aR,10aR)-9-(hydroxymethyl)-6,6-dimethyl-3-(2-methyloctan-2-yl)-6a,7,10,10a-tetrahydrobenzo[c]chromen-1-ol], the “activation of GPR35 (distribution of βarr2-GFP different from basal state)” value is given as “None of the compounds at concentrations up to 30 μM activated GPR35”.

Regarding `CCCn1c(C)c(C(=O)c2cccc3ccccc23)c2ccccc21` [JWH-015, (2-methyl-1-propyl-1H-indol-3-yl)-1-naphthalenylmethanone], the “activation of GPR35 (distribution of βarr2-GFP different from basal state)” value is reported as “None of the compounds at concentrations up to 30 μM activated GPR35”.

In the case of `Cc1c(/C=N/N2CCCCC2)nn(-c2ccc(Cl)cc2Cl)c1-c1ccc(Cl)cc1` [PIMSR1, 5-(4-chlorophenyl)-1-(2,4-dichlorophenyl)-4-methyl-3-[(E)-piperidinoiminomethyl]-1H-pyrazole], the “activation of GPR35 (distribution of βarr2-GFP different from basal state)” value was “None of the compounds at concentrations up to 30 μM activated GPR35”.

Turning to `Cc1c(/C=C/C2CCCCC2)nn(-c2ccc(Cl)cc2Cl)c1-c1ccc(Cl)cc1` [VCHSR1, 5-(4-chlorophenyl)-3-[(E)-2-cyclohexylethenyl]-1-(2,4-dichlorophenyl)-4-methyl-1H-pyrazole], the “activation of GPR35 (distribution of βarr2-GFP different from basal state)” value is given as “None of the compounds at concentrations up to 30 μM activated GPR35”.

As to `Cc1c(C(=O)c2cccc3ccccc23)c2cccc3c2n1[C@H](CN1CCOCC1)CO3` [WIN55212-2, (R)-(+)-[2,3-dihydro-5-methyl-3-(4-morpholinylmethyl)pyrrolo[1,2,3-de)-1,4-benzoxazin-6-yl]-1-napthalenylmethanone], the “activation of GPR35 (distribution of βarr2-GFP different from basal state)” value is “None of the compounds at concentrations up to 30 μM activated GPR35”.

In the case of `CCCCC/C=C\C/C=C\C/C=C\C/C=C\CCCC(=O)NCCO` [anandamide], the “activation of GPR35 (distribution of βarr2-GFP different from basal state)” value was “None of the compounds at concentrations up to 30 μM activated GPR35”.

Turning to `C=C(C)[C@@H]1CCC(C)=C[C@H]1c1c(O)cc(CCCCC)cc1O` [cannabidiol], the “activation of GPR35 (distribution of βarr2-GFP different from basal state)” value is “None of the compounds at concentrations up to 30 μM activated GPR35”.

Regarding `CCCCCc1cc(O)c2c(c1)OC(C)(C)c1ccc(C)cc1-2` [cannabinol], the “activation of GPR35 (distribution of βarr2-GFP different from basal state)” value is listed as “None of the compounds at concentrations up to 30 μM activated GPR35”.

For `CCCCCc1cc(O)c2c(c1)OC(C)(C)[C@@H]1CCC(C)=C[C@@H]21` [delta-9-tetrahydrocannabinol], the “activation of GPR35 (distribution of βarr2-GFP different from basal state)” value is on record as “None of the compounds at concentrations up to 30 μM activated GPR35”.

For the compound lysophosphatidic acid, the “activation of GPR35 (distribution of βarr2-GFP different from basal state)” value is listed as “None of the compounds at concentrations up to 30 μM activated GPR35”.

For lysophosphatidylinositol, the “activation of GPR35 (distribution of βarr2-GFP different from basal state)” value is “None of the compounds at concentrations up to 30 μM activated GPR35”.

Staying with this experiment, now noted: mean (95% confidence interval in brackets in the text), read-out: EC50 for β-arrestin2 aggregation.
Take `O=C(O)c1cc([N+](=O)[O-])ccc1NCCCc1ccccc1` [Compound 6, 5-Nitro-2-(3-phenylpropylamino)-benzoic acid]: the concentration for a half-maximal effect (EC50) was determined as 4.3 µM.

For the origin of these results see patent publication US9622995B2, “Treatment of disorders associated with G protein-coupled receptor 35 (GPR35)” (TEMPLE UNIVERSITY—OF THE COMMONWEALTH SYSTEM OF HIGHER …, priority 2009, dated 2017).
